We go through three compounds from patent US20180353489A1, “Antibacterial Pharmaceutical Combination and Method for Treating Gram-Negative Bacteria Infections” (TENNOR THERAPEUTICS (SUZHOU) LIMITED, priority 2016, published 2018).

Assay [1] deals with Escherichia coli ATCC 25922. The assay can be described thus: Checkerboard broth microdilution MIC test. The format is cell-based. The text has this:
(§1) A standard 96-well plate checkerboard test platform for the determination of Minimum Inhibitory Concentration (MIC) and Minimum Bactericidal Concentration (MBC) as endpoints is used for the test of the antibacterial activity of the pharmaceutical combination in vitro. Escherichia coli ATCC 25922 strain is used as the representative strain of Gram-negative bacteria in initial investigations. The correlation between the observed results and the major Gram-negative bacteria in hospital—Pseudomonas aeruginosa, Klebsiella pneumoniae, Acinetobacter baumannii and Stenotrophomonas maltophilia—is assessed by a similar method.
Escherichia coli ATCC 25922 is a quality control strain for MIC testing as recommended by the Clinical and Laboratory Standards Institute (CLSI), which was obtained originally from the American Type Culture Collection (ATCC) repository and was used as a model of Gram-negative pathogen described herein. Other Gram-negative bacteria strains, including two strains of Pseudomonas aeruginosa, two strains of Klebsiella pneumoniae, Acinetobacter baumannii and Stenotrophomonas maltophilia, were also obtained from ATCC.
Minimum inhibitory concentration (MIC) endpoints of the combination of TNP-2092 and polymyxin B or E were determined by the two-agent checkerboard assay method based on the CLSI broth microdilution susceptibility method. To obtain a 96-well plate for each pharmaceutical combination, two separate intermediate dilution plates were prepared as described. A sufficient volume of a standard cell inoculum of ˜5×10^5 CFU/mL was prepared in cation adjusted Mueller Hinton broth with 0.002% (vol:vol) polysorbate-80 using the direct colony suspension method. […] The “destination MIC test plates” were then incubated statically at 35° C. for 18-24 h and the MIC of each agent alone or in combination was read visually.
(§2) In vitro fractional inhibitory concentration (FIC) was calculated using the following formula: […]
(In general: Dilution methods test growth across graded concentrations, often in twofold steps.)

In assay [2] the test system is Escherichia coli ATCC 25922. The assay is described as follows: Checkerboard MBC test. The format is cell-based. The conditions noted are these: for MBC99.9/MIC / MBC99.9: used separately.
Description: as §1
Minimum inhibitory concentration (MIC) endpoints of the combination of TNP-2092 and polymyxin B or E were determined by the two-agent checkerboard assay method based on the CLSI broth microdilution susceptibility method. To obtain a 96-well plate for each pharmaceutical combination, two separate intermediate dilution plates were prepared as described. A sufficient volume of a standard cell inoculum of ˜5×10^5 CFU/mL was prepared in cation adjusted Mueller Hinton broth with 0.002% (vol:vol) polysorbate-80 using the direct colony suspension method. 0.2 mL of the above suspension was added to the wells in the first column of a first 96-well plate (ID-1), and 0.1 mL of the suspension was added to all remaining wells. 0.2 mL of the same cell inoculum suspension was added to the wells in the first row of a second plate (ID-2), and 0.1 mL of suspension was added to all the remaining wells. An appropriately concentrated drug stock “compound-1” (representing one of the two drugs to be tested in the combination) was added to each well in the first column of the plate ID-1. This was then diluted serially two-fold across the plate, changing tips at each transfer, until column 11 was reached. From column 11, 0.1 mL was removed and discarded and column 12 contains only cell inoculum and no drug. Next, an appropriately concentrated drug stock “Compound 2” (representing the second of the two agents to be tested in the combination) was then diluted into each well of row 1 in plate ID2. This was then diluted serially two-fold down the plate, changing tips at each transfer, until row 7 was reached. 0.1 mL was removed from row 7 and discarded and row 8 contains only cell inoculum and no drug. Finally, 0.05 mL was transferred from both ID1 and ID2 into a third 96 well “destination MIC test plate” (see FIG. 1). […] Column 12 is used to call the MIC of compound 2 alone and row 8 is used to call the MIC of compound 1 when tested alone. Note that the intersection of row 8 and column 12 contains no drug and serves as the growth control. The “destination MIC test plates” were then incubated statically at 35° C. for 18-24 h and the MIC of each agent alone or in combination was read visually.
For minimum bactericidal concentration (MBC) endpoints, 0.008 mL portions of each well, after MICs were called, were transferred from the MIC test plates by an automatic sampler to a charcoal agar omni recipient plate. Drops were allowed to air dry in a biological cabinet and the plates incubated inverted for 18-24 h a 35° C. The MBC was scored as the lowest consecutive antimicrobial drug concentration required to kill ≥99.9% of viable input test organisms in 18-24 h, or ≤5 CFU remaining per 0.008 mL drop
as §2
FIC (Fractional inhibitory concentration) or FBC (fractional bactericidal concentration) results were interpreted as synergistic, additive, indifferent, or antagonistic. In cases where no endpoint was observed and the MIC/MBC could not be called, then for the purpose of algebraic calculations, the endpoint was arbitrarily assumed to be one dilution greater than the tested range

Like-named read-outs stand apart in the source and are kept apart here.

A word on the MIC: it is the lowest concentration found to suppress growth. In the case of `CO[C@H]1/C=C/O[C@@]2(C)Oc3c(C)c(O)c4c(O)c(c(/C=N/N5CCC(N(C)C6([C@@H]7CCN(c8c(F)cn9c(=O)c(C(=O)O)cc(C%10CC%10)c9c8C)C7)CC6)CC5)c(O)c4c3C2=O)NC(=O)/C(C)=C\C=C\[C@H](C)[C@H](O)[C@@H](C)[C@@H](O)[C@@H](C)[C@H](OC(C)=O)[C@@H]1C` [TNP-2092], the MIC in assay [1] (ATCC25922, used separately, read-out: MIC) turned out to be 0.25 µg/mL. The MBC in assay [2] (ATCC25922, used separately, read-out: MBC99.9) was found to be 0.25 µg/mL. In addition, the MBC99.9/MIC in assay [2] is reported as 1.

With polymyxin E, the MIC in assay [1] (used separately) turned out to be 1 µg/mL. In assay [2], the MBC99.9 amounted to 8 µg/mL and the MBC99.9/MIC is given as 8.

For polymyxin B, in assay [1] (used separately), the minimal inhibitory concentration (MIC) amounted to 2 µg/mL. In addition, in assay [2], the MBC99.9 came to 8 µg/mL and the MBC99.9/MIC stood at 4.
